Results published in US11952330B2, “Antibiotic ammonium compounds and methods for the treatment of bacterial infections” (priority 2019, dated 2024).

Legend:
[1] = tested on: S. aureus; experiment: MIC by broth dilution, S. aureus; type: cell-based; conditions: Staphylococcus aureus; Mueller-Hinton broth, overnight 37° C.; Table 1; read-out: MIC (μg/mL) S. aureus
Method: (§1) The antibacterial efficacy of the ammonium compounds was assessed. Minimum inhibitory concentrations (MICs) were determined by broth dilution method. Dilutions of each compound, ranging from 1 μg/mL to 256 μg/mL (final concentrations) were prepared in Mueller-Hinton broth. Compound dilutions were added to wells of a 96-well plate, with the concentration of the compound increasing 2-fold by row. Each well contained 5×10^5 CFU/ml of target bacterium in a total volume of 100 μl. Plates were incubated overnight at 37° C. The following day, plates were evaluated for a visual change in growth to determine the MIC. The concentration value corresponding to the first row that no longer had visible bacterial growth, as evaluated by turbidity in the wells, was recorded as the MIC. MIC values were representative of at least biological duplicates, each made up of technical triplicates. The antibacterial efficacy of ammonium compounds in the presence of human plasma was assessed. Minimum inhibitory concentrations (MICs) were determined by broth dilution method. Dilutions of each compound, ranging from 1 μg/mL to 256 μg/mL (final concentrations) were prepared in Mueller-Hinton broth. For the plasma containing samples, compound dilutions were made in Mueller-Hinton broth and supplemented with 5% (final %) human plasma (esterases). Compound dilutions were added to wells of a 96-well plate, with the concentration of the compound increasing 2-fold by row. Each well contained 5×10^5 CFU/mL of target bacterium in a total volume of 100 μL. Plates were incubated overnight at 37° C. The following day, plates were evaluated for a visual change in growth to determine the MIC. The concentration value corresponding to the first row that no longer had visible bacterial growth, as evaluated by turbidity in the wells, was recorded as the MIC. MIC values were representative of at least biological duplicates, each made up of technical triplicates.

[2] = tested on: A. baumannii; experiment: MIC by broth dilution, A. baumannii; type: cell-based; conditions: Acinetobacter baumannii; Mueller-Hinton broth, overnight 37° C.; Table 1; read-out: MIC (μg/mL) A. baumannii
Method: as §1

Row | SMILES | MIC [1] | MIC [2]
1 | CCCCCCCCOc1ccccc1C(=O)Nc1ccc(C(=O)NC2CC[N+](C)(CCC)CC2)cc1.[Br-] (stereo not shown) [Compound 72, 1-Methyl-4-(4-(2-(octyloxy)benzamido)benzamido)-1-propylpiperidin-1-ium bromide] | 3 to 30 µg/mL | > 30 µg/mL
2 | CCCCCCCOc1ccccc1C(=O)Nc1ccc(C(=O)NC2CC[N+](C)(CCC)CC2)cc1.[Br-] (stereo not shown) [Compound 73, 4-(4-(2-(Heptyloxy)benzamido)benzamido)-1-methyl-1-propylpiperidin-1-ium bromide] | 3 to 30 µg/mL | > 30 µg/mL
3 | CCCCCCCCOc1ccccc1C(=O)Nc1ccc(C(=O)N(C)C2CC[N+](CC)(CCC)CC2)cc1.[Br-] (stereo not shown) [Compound 74, 1-Ethyl-4-(N-methyl-4-(2-(octyloxy)benzamido)benzamido)-1-propylpiperidin-1-ium bromide] | 3 to 30 µg/mL | > 30 µg/mL
4 | CCCCCCCCOc1ccccc1C(=O)Nc1ccc(C(=O)NC2CC[N+](CCC)(CCC)CC2)cc1.[Br-] [Compound 75, 4-(4-(2-(Octyloxy)benzamido)benzamido)-1,1-dipropylpiperidin-1-ium bromide] | 3 to 30 µg/mL | > 30 µg/mL
5 | CCCCCCCOc1ccccc1C(=O)Nc1ccc(C(=O)NC2CC[N+](CCC)(CCC)CC2)cc1.[Br-] [Compound 76, 4-(4-(2-(Heptyloxy)benzamido)benzamido)-1,1-dipropylpiperidin-1-ium bromide] | 3 to 30 µg/mL | > 30 µg/mL
6 | CCCCCCCOc1ccccc1C(=O)Nc1ccc(C(=O)NCC[N+](C)(CC)CC)cc1.[Br-] [Compound 77, N,N-Diethyl-2-(4-(2-(heptyloxy)benzamido)benzamido)-N-methylethan-1-aminium bromide] | 3 to 30 µg/mL | > 30 µg/mL
7 | CCCCCCCCOc1ccccc1C(=O)Nc1ccc(S(=O)(=O)NCC[N+](C)(CC)CC)cc1.[Br-] [Compound 78, N,N-Diethyl-N-methyl-2-((4-(2-(octyloxy)benzamido)phenyl)sulfonamido)ethan-1-aminium bromide] | 3 to 30 µg/mL | 3 to 30 µg/mL
8 | CCCCCCCOc1ccccc1C(=O)Nc1ccc(S(=O)(=O)NCC[N+](C)(CC)CC)cc1.[Br-] [Compound 79, N,N-Diethyl-2-((4-(2-(heptyloxy)benzamido)phenyl)sulfonamido)-N-methylethan-1-aminium bromide] | 3 to 30 µg/mL | > 30 µg/mL
9 | CCCCCCCCOc1ccccc1C(=O)Nc1ccc(C(=O)NC2CC[N+](C)(CC)CC2)cc1.[Br-] (stereo not shown) [Compound 80, 1-Ethyl-1-methyl-4-(4-(2-(octyloxy)benzamido)benzamido)piperidin-1-ium bromide] | 3 to 30 µg/mL | > 30 µg/mL
10 | CCCCCCCOc1ccccc1C(=O)Nc1ccc(C(=O)NC2CC[N+](C)(CC)CC2)cc1.[Br-] (stereo not shown) [Compound 81, 1-Ethyl-4-(4-(2-(heptyloxy)benzamido)benzamido)-1-methylpiperidin-1-ium bromide] | > 30 µg/mL | > 30 µg/mL
11 | CCCCCCCCOc1ccccc1C(=O)Nc1ccc(S(=O)(=O)NCC[N+](CC)(CC)CCC)cc1.[Br-] [Compound 82, N,N-Diethyl-N-(2-((4-(2-(octyloxy)benzamido)phenyl)sulfonamido)ethyl)propan-1-aminium bromide] | 3 to 30 µg/mL | 3 to 30 µg/mL
12 | CCCCCCCOc1ccccc1C(=O)Nc1ccc(S(=O)(=O)NCC[N+](CC)(CC)CCC)cc1.[Br-] [Compound 83, N,N-Diethyl-N-(2-((4-(2-(heptyloxy)benzamido)phenyl)sulfonamido)ethyl)propan-1-aminium bromide] | 3 to 30 µg/mL | > 30 µg/mL
13 | CCCCCCCCOc1ccccc1C(=O)Nc1ccc(C(=O)NC2CC[N+](CC)(CCC)CC2)cc1.[Br-] (stereo not shown) [Compound 84, 1-Ethyl-4-(4-(2-(octyloxy)benzamido)benzamido)-1-propylpiperidin-1-ium bromide] | 3 to 30 µg/mL | > 30 µg/mL
14 | CCCCCCCOc1ccccc1C(=O)Nc1ccc(C(=O)NC2CC[N+](CC)(CCC)CC2)cc1.[Br-] (stereo not shown) [Compound 85, 1-Ethyl-4-(4-(2-(heptyloxy)benzamido)benzamido)-1-propylpiperidin-1-ium bromide] | 3 to 30 µg/mL | > 30 µg/mL
15 | CCCCCCCCOc1ccc(F)cc1C(=O)Nc1ccc(C(=O)OCC[N+](C)(CC)CC)cc1.[Br-] [Compound 86, N,N-Diethyl-2-((4-(5-fluoro-2-(octyloxy)benzamido)benzoyl)oxy)-N-methylethan-1-aminium bromide] | < 3 µg/mL | 3 to 30 µg/mL
16 | CCCCCCCCOc1cc(F)ccc1C(=O)Nc1ccc(C(=O)OCC[N+](C)(CC)CC)cc1.[Br-] [Compound 87, N,N-Diethyl-2-((4-(4-fluoro-2-(octyloxy)benzamido)benzoyl)oxy)-N-methylethan-1-aminium bromide] | 3 to 30 µg/mL | > 30 µg/mL
17 | CCCCCCCCOc1cccc(F)c1C(=O)Nc1ccc(C(=O)OCC[N+](C)(CC)CC)cc1.[Br-] [Compound 88, N,N-Diethyl-2-((4-(2-fluoro-6-(octyloxy)benzamido)benzoyl)oxy)-N-methylethan-1-aminium bromide] | 3 to 30 µg/mL | > 30 µg/mL
18 | CCCCCCCCOc1c(F)cccc1C(=O)Nc1ccc(C(=O)OCC[N+](C)(CC)CC)cc1.[Br-] [Compound 89, N,N-Diethyl-2-((4-(3-fluoro-2-(octyloxy)benzamido)benzoyl)oxy)-N-methylethan-1-aminium bromide] | 3 to 30 µg/mL | > 30 µg/mL
19 | CCCCCCCCOc1ccccc1C(=O)Nc1ccc(C(=O)OCC[N+](C)(CC)CC)c(F)c1.[Br-] [Compound 90, N,N-Diethyl-2-((2-fluoro-4-(2-(octyloxy)benzamido)benzoyl)oxy)-N-methylethan-1-aminium bromide] | 3 to 30 µg/mL | 3 to 30 µg/mL
20 | CCCCCCCCOc1ccccc1C(=O)Nc1ccc(C(=O)OCC[N+](C)(CC)CC)cc1F.[Br-] [Compound 91, N,N-Diethyl-2-((3-fluoro-4-(2-(octyloxy)benzamido)benzoyl)oxy)-N-methylethan-1-aminium bromide] | 3 to 30 µg/mL | > 30 µg/mL
21 | CCCCCCOc1ccccc1C(=O)Nc1ccc(S(=O)(=O)NCC[N+](CC)(CC)CCCCC)cc1.[Br-] [Compound 92, N,N-Diethyl-N-(2-((4-(2-(hexyloxy)benzamido)phenyl)sulfonamido)ethyl)pentan-1-aminium bromide] | 3 to 30 µg/mL | > 30 µg/mL
22 | CCCCCCCOc1ccccc1C(=O)Nc1ccc(S(=O)(=O)NCC[N+](CC)(CC)CCCC)cc1.[Br-] [Compound 93, N,N-Diethyl-N-(2-((4-(2-(heptyloxy)benzamido)phenyl)sulfonamido)ethyl)butan-1-aminium bromide] | 3 to 30 µg/mL | > 30 µg/mL
23 | CCCCCCOc1cc(F)ccc1C(=O)Nc1ccc(S(=O)(=O)NCC[N+](CC)(CC)CCCCC)cc1.[Br-] [Compound 94, N,N-Diethyl-N-(2-((4-(4-fluoro-2-(hexyloxy)benzamido)phenyl)sulfonamido)-ethyl)pentan-1-aminium bromide] | 3 to 30 µg/mL | 3 to 30 µg/mL
24 | CCCC(CCC)Oc1ccccc1C(=O)Nc1ccc(C(=O)OCC[N+](C)(CC)CC)cc1.[Br-] [Compound 96, N,N-Diethyl-2-((4-(2-(heptan-4-yloxy)benzamido)benzoyl)oxy)-N-methylethan-1-aminium bromide] | 3 to 30 µg/mL | > 30 µg/mL
25 | CC[N+](C)(CC)CCOC(=O)c1ccc(NC(=O)c2ccccc2OCCCCC(C)C)cc1.[Br-] [Compound 97, N,N-Diethyl-N-methyl-2-((4-(2-((5-methylhexyl)oxy)benzamido)benzoyl)oxy)-ethan-1-aminium bromide] | 3 to 30 µg/mL | > 30 µg/mL
26 | CC[N+](C)(CC)CCOC(=O)c1ccc(NC(=O)c2ccccc2OC2CCC(C)CC2)cc1.[Br-] (stereo not shown) [Compound 98, N,N-Diethyl-N-methyl-2-((4-(2-(((1s,4s)-4-methylcyclohexyl)oxy)benzamido)-benzoyl)oxy)ethan-1-aminium bromide] | > 30 µg/mL | > 30 µg/mL
